Data from US20040254162A1, “Oxazolidinone derivatives as antimicrobials” (priority 2001, published 2004).
Values after ≈ are worked out from the molar mass of the structure shown. Values joined by “and” are separate entries in the source; they are usually repeats but may differ in a detail not shown here. Identical values can stand only once.

Tests used:
P. acnes = assay: Agar dilution MIC, anaerobes; format: cell-based; conditions: single isolates, anaerobic agar dilution
Prevotella intermedia = assay: Agar dilution MIC, anaerobes; format: cell-based; conditions: single isolates, anaerobic agar dilution
anaerobic bacteria = assay: Agar dilution method for anaerobic bacteria, summary; format: cell-based; conditions: anaerobes
[1] = tested on: Peptostreptococcus prevotii; assay: Agar dilution MIC, anaerobes; format: cell-based; conditions: single isolates, anaerobic agar dilution
Fusobacterium varium = assay: Agar dilution MIC, anaerobes; format: cell-based; conditions: single isolates, anaerobic agar dilution
Eubacterium leutum = assay: Agar dilution MIC, anaerobes; format: cell-based; conditions: single isolates, anaerobic agar dilution
[2] = tested on: Prevotella (Bacteroides) disiens; assay: Agar dilution MIC, anaerobes; format: cell-based; conditions: single isolates, anaerobic agar dilution
Fusobacterium necrogenes = assay: Agar dilution MIC, anaerobes; format: cell-based; conditions: single isolate, anaerobic agar dilution
[3] = tested on: Peptostreptococcus magnum; assay: Agar dilution MIC, anaerobes; format: cell-based; conditions: single isolates, anaerobic agar dilution
[4] = tested on: Peptostreptococcus asaccharolyticus; assay: Agar dilution MIC, anaerobes; format: cell-based; conditions: single isolates, anaerobic agar dilution
Clostridium difficile = assay: Agar dilution MIC, anaerobes; format: cell-based; conditions: single isolates, anaerobic agar dilution
[5] = tested on: Prevotella melaninogenica; assay: Agar dilution MIC, anaerobes; format: cell-based; conditions: single isolates, anaerobic agar dilution
[6] = tested on: Mycobacterium tuberculosis; conditions: geometric mean MIC
[7] = tested on: Mycobacterium avium intracellulare; assay: Agar dilution method, mycobacteria; format: cell-based
[8] = tested on: Mycobacterium tuberculosis; assay: microbe, parasite or virus in culture; conditions: 504 h
Ent. faecalis ATCC 29212 = assay: MIC, agar incorporation method; conditions: agar incorporation
MRSA 562 [9] = assay: MIC, agar incorporation method; conditions: for MIC: MRSA 562, Table 5; for MIC MRSA 562: agar incorporation, Table 1
S. pneum AB 34 = assay: MIC, agar incorporation method; conditions: agar incorporation
[10] = Changes in MIC under different conditions: broth MIC; format: cell-based; conditions: strain not given
Strep. pne. ATCC 6303 = assay: MIC, agar incorporation method; conditions: agar incorporation
VRE 6A (Ent. faecium 6A) = assay: MIC, agar incorporation method; conditions: agar incorporation
MRSA 33 = assay: MIC, agar incorporation method; conditions: agar incorporation
Strep. pyog. ATCC 19615 = assay: MIC, agar incorporation method; conditions: agar incorporation
S. aureus ATCC 25923 = assay: MIC, agar incorporation method; conditions: agar incorporation
MRSA 15187 = assay: MIC, agar incorporation method; conditions: agar incorporation
[11] = Changes in MIC under different conditions: agar MIC; format: cell-based; conditions: strain not given
MRSA 562 [12] = assay: In vivo activity against MRSA 562 (ED50); set-up: species or system Methicillin Resistant Staphylococcus aureus; conditions: PO; MRSA 562 infection
S. pneumoniae = assay: Summary of in vitro activity (MIC); conditions: S. pneumoniae, Number 19
E. faecalis = assay: Summary of in vitro activity (MIC); conditions: E. faecalis, Number 7
S. aureus = assay: Summary of in vitro activity (MIC); conditions: S. aureus, Number 8
G +ve bacteria = assay: Summary of in vitro activity (MIC); conditions: G +ve, Number 49

CC1(C)S[C@@H]2[C@H](NC(=O)[C@H](N)c3ccc(O)cc3)C(=O)N2[C@H]1C(=O)O [Amox]
MIC P. acnes (P. acnes): 0.25 µg/mL (≈ 0.684 µM) | MIC Prevotella intermedia (Prevotella intermedia): 4 µg/mL (≈ 10.9 µM) | Geometric Mean (anaerobic bacteria): 1.366 µg/mL | MIC Range (anaerobic bacteria): 0.062 to 256 µg/mL | MIC50 (anaerobic bacteria; Wilkins Chalgren agar, 48 hour): 1 µg/mL (≈ 2.74 µM) | MIC90 (anaerobic bacteria; Wilkins Chalgren agar, 48 hour): 256 µg/mL (≈ 701 µM) | MIC Peptostreptococcus prevotii [1]: 0.25 µg/mL (≈ 0.684 µM) | MIC Fusobacterium varium (Fusobacterium varium): 1 µg/mL (≈ 2.74 µM) | MIC Eubacterium leutum (Eubacterium leutum): 1 µg/mL (≈ 2.74 µM) | MIC Prevotella (Bacteroides) disiens [2]: >128 µg/mL | MIC Fusobacterium necrogenes (Fusobacterium necrogenes): 0.5 µg/mL (≈ 1.37 µM) | MIC Peptostreptococcus magnum [3]: 0.25 µg/mL and 0.5 µg/mL | MIC Peptostreptococcus asaccharolyticus [4]: 0.25 µg/mL (≈ 0.684 µM) | MIC Clostridium difficile (Clostridium difficile): 1 µg/mL and 2 µg/mL | MIC Prevotella melaninogenica [5]: 64 µg/mL (≈ 175 µM)

CC[C@H]1OC(=O)[C@H](C)[C@@H](O[C@H]2C[C@@](C)(OC)[C@@H](O)[C@H](C)O2)[C@H](C)[C@@H](O[C@@H]2O[C@H](C)C[C@H](N(C)C)[C@H]2O)[C@](C)(OC)C[C@@H](C)C(=O)[C@H](C)[C@@H](O)[C@]1(C)O [Clarithromycin]
G.M. [6]: 12.69 µg/mL | MIC50 ([7]; Mycobacterium avium, 504 h, Middlebrook 7H10 agar, 21 days, read-out: MIC50): 1 µg/mL (≈ 1.34 µM) | MIC90 ([7]; Mycobacterium avium, 504 h, Middlebrook 7H10 agar, 21 days, read-out: MIC90): 4 µg/mL (≈ 5.35 µM) | G.M. ([7]; geometric mean MIC): 1.554 µg/mL | MIC50 [8]: 16 µg/mL (≈ 21.4 µM) | MIC90 [8]: 32 µg/mL (≈ 42.8 µM)

CC(=O)NC[C@H]1CN(c2ccc(N3CCN(C(=O)c4ccoc4)CC3)c(F)c2)C(=O)O1 [Compound No. 08, (S)-N[[3-[3-Fluoro-4-[N-1[4-(3-furoyl)]piperazinyl]phenyl]2-oxo-5-oxazolidinyl]-methyl]acetamide]
MIC E. faecalis 29212 (Ent. faecalis ATCC 29212): 1 µg/mL (≈ 2.32 µM) | MIC (MRSA 562 [9]): 1 µg/mL (≈ 2.32 µM) | MIC MRSA 562 (MRSA 562 [9]): 1 µg/mL (≈ 2.32 µM) | MIC S. pneum AB 34 (S. pneum AB 34): 4 µg/mL (≈ 9.29 µM) | Broth MIC +50% Sheep serum [10]: 4 µg/mL | Broth MIC Normal MH broth [10]: 2 µg/mL | MIC S. pneum 6303 (Strep. pne. ATCC 6303): 2 µg/mL (≈ 4.65 µM) | MIC VRE 6A (VRE 6A (Ent. faecium 6A)): 1 µg/mL (≈ 2.32 µM) | MIC MRSA 33 (MRSA 33): 1 µg/mL (≈ 2.32 µM) | MIC S. pyogenes 19615 (Strep. pyog. ATCC 19615): 1 µg/mL (≈ 2.32 µM) | MIC S. aureus 25923 (S. aureus ATCC 25923): 2 µg/mL (≈ 4.65 µM) | MIC MRSA 15187 (MRSA 15187): 1 µg/mL (≈ 2.32 µM) | Agar MIC [11]: 1 µg/mL | ED50 (mg/kg body weight) PO (MRSA 562 [12]): 25 mg/kg body weight

CC(=O)NC[C@H]1CN(c2ccc(N3CCN(C(=O)c4ccc([N+](=O)[O-])s4)CC3)c(F)c2)C(=O)O1.Cl [Compound No. 29, (S)-N[[3-[3-Fluoro-4-[N-1[4-(5-nitro-2-thienoyl)]piperazinyl]phenyl]2-oxo-5-oxazolidinyl]methyl]acetamide hydrochloride]
MIC E. faecalis 29212 (Ent. faecalis ATCC 29212): 1 µg/mL | MIC (MRSA 562 [9]): <0.1 µg/mL | MIC MRSA 562 (MRSA 562 [9]): <0.1 µg/mL | MIC S. pneum AB 34 (S. pneum AB 34): 1 µg/mL | Broth MIC +50% Sheep serum [10]: 0.5 µg/mL | Broth MIC Normal MH broth [10]: 0.25 µg/mL | MIC50 (S. pneumoniae): 1 µg/mL | MIC90 (S. pneumoniae): 1 µg/mL | MIC50 (E. faecalis): 1 µg/mL | MIC90 (E. faecalis): 1 µg/mL | MIC S. pneum 6303 (Strep. pne. ATCC 6303): 1 µg/mL | MIC50 (S. aureus): 0.064 µg/mL | MIC90 (S. aureus): 0.25 µg/mL | MIC VRE 6A (VRE 6A (Ent. faecium 6A)): 0.5 µg/mL | MIC MRSA 33 (MRSA 33): <0.1 µg/mL | MIC50 (G +ve bacteria): 1 µg/mL | MIC90 (G +ve bacteria): 1 µg/mL | MIC S. pyogenes 19615 (Strep. pyog. ATCC 19615): 1 µg/mL | MIC S. aureus 25923 (S. aureus ATCC 25923): 0.25 µg/mL | MIC MRSA 15187 (MRSA 15187): <0.1 µg/mL | Agar MIC [11]: <0.1 µg/mL | ED50 (mg/kg body weight) PO (MRSA 562 [12]): >25 mg/kg body weight
